Test results taken from publication PMC5216056 (Nature Communications, 2017).
Read-outs that look alike come from different tables or passages of the source.

How the values were obtained:
hCB1R [1] = molecular target: T1, hCB1R (Homo sapiens, UniProt P21554); experiment: biochemical; assay type: binding
T1 construct: host or cells: CHO

mCB1R = molecular target: T2, mCB1R (Mus musculus, UniProt P47746); experiment: biochemical; assay type: binding
T2 construct: from tissue; host or cells: brain of male C57BL/6J mice
T2 sequence (P47746 whole entry): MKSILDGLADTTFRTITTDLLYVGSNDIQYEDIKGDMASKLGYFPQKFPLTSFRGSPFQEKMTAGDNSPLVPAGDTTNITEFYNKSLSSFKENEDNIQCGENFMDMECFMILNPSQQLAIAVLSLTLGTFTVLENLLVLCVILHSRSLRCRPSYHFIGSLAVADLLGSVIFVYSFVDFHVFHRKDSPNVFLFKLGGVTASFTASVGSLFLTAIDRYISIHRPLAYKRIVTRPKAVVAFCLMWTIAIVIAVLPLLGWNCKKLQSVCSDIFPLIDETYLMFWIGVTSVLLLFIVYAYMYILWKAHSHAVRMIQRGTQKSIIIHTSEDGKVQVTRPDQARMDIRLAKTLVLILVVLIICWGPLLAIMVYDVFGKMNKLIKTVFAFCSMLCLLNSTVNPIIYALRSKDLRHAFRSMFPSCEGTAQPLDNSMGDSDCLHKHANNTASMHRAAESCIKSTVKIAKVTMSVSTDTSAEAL

hCB1R [2] = molecular target: T1, hCB1R; experiment: biochemical; assay type: biochemical
hCB1R [3] = molecular target: T1, hCB1R; experiment: cell-based; assay type: cell-based
hCB1R [4] = molecular target: T1, hCB1R; experiment: cell-based; assay type: cell-based; remark: listed apart in the source
[5] = 1 μM
[6] = logD distribution coefficient
hCB2R = hCB2R (Homo sapiens, UniProt P34972); design: expressed in transfected cells; host or cells: Flp-In-293 (Invitrogen #R750-07), pcDNA5/FRT; details: hCB2R
hCB2R, sequence (P34972 whole entry): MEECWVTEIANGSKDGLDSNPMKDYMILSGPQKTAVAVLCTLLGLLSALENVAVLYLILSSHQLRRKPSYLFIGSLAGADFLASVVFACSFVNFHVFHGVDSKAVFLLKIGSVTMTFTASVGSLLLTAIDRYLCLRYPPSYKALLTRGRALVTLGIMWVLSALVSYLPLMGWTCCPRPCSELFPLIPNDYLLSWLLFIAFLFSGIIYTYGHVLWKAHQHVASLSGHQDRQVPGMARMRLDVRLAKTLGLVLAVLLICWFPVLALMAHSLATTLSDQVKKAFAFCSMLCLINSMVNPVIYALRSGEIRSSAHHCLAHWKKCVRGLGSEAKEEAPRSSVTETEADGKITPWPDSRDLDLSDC

hGPR55 = molecular target: T3, hGPR55 (Homo sapiens, UniProt Q9Y2T6); experiment: cell-based
T3 construct: host or cells: CHO-K1 (PathHunter hGPR55_bgal)
T3 sequence (Q9Y2T6 whole entry): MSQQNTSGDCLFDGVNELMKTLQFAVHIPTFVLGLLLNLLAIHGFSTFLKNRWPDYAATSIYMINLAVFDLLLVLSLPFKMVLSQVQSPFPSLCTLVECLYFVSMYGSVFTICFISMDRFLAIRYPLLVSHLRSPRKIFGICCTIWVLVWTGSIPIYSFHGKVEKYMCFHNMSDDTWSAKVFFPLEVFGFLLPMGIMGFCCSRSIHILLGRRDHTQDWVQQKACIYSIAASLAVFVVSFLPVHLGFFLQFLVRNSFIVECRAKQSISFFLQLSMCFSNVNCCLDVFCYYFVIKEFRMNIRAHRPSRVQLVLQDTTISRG

[7] = test system: AEA cellular uptake in U937 cells; experiment: cells; assay type: cell-based, human
[8] = test system: AEA cellular uptake in HMC-1 cells; experiment: cells; assay type: cell-based, human; details: Homo sapiens, HMC1, read-out: AEA reuptake IC50 (95% CI) HMC-1 cells
Human recombinant TRPV1 = molecular target: T4, Human recombinant TRPV1 (Homo sapiens, UniProt Q8NER1); experiment: cell-based; assay type: cell-based
T4 construct: expressed in transfected cells; host or cells: HEK293 (TRPV1-HEK-293, gift from John Davis, GlaxoSmithKline)
T4 sequence (Q8NER1 whole entry): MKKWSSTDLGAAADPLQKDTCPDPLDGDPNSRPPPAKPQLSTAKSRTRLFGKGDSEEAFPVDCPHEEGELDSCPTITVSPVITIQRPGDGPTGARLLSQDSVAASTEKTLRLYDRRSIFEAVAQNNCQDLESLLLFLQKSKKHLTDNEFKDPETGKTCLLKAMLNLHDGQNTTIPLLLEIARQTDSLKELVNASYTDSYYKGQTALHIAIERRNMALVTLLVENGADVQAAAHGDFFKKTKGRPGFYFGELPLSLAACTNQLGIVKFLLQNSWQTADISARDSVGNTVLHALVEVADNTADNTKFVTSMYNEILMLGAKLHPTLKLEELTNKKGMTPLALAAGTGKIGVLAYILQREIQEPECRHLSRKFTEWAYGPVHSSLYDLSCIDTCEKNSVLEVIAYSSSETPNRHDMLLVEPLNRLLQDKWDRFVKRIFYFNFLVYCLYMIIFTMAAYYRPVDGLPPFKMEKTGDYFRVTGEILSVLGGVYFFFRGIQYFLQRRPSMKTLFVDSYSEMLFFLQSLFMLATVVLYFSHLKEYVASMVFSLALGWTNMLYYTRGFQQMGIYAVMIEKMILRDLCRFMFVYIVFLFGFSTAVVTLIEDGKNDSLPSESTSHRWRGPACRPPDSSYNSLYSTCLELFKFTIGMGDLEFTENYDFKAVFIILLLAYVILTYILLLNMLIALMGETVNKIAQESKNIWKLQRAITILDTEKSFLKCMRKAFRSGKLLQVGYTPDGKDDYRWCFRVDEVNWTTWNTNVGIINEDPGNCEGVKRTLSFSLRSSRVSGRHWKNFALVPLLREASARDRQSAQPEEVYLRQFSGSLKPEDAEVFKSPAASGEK

Rat recombinant TRPM8 = molecular target: T5, Rat recombinant TRPM8 (Rattus norvegicus, UniProt Q8R455); experiment: TRP channel [Ca2+]i assay; assay type: cell-based; details: vs icilin 0.25μM; read-out: TRPM8 IC50 for antagonism of icilin
T5 construct: expressed in transfected cells; host or cells: HEK293 (TRPM8-HEK-293, gift from Mario van der Stelt)
T5 sequence (Q8R455 whole entry): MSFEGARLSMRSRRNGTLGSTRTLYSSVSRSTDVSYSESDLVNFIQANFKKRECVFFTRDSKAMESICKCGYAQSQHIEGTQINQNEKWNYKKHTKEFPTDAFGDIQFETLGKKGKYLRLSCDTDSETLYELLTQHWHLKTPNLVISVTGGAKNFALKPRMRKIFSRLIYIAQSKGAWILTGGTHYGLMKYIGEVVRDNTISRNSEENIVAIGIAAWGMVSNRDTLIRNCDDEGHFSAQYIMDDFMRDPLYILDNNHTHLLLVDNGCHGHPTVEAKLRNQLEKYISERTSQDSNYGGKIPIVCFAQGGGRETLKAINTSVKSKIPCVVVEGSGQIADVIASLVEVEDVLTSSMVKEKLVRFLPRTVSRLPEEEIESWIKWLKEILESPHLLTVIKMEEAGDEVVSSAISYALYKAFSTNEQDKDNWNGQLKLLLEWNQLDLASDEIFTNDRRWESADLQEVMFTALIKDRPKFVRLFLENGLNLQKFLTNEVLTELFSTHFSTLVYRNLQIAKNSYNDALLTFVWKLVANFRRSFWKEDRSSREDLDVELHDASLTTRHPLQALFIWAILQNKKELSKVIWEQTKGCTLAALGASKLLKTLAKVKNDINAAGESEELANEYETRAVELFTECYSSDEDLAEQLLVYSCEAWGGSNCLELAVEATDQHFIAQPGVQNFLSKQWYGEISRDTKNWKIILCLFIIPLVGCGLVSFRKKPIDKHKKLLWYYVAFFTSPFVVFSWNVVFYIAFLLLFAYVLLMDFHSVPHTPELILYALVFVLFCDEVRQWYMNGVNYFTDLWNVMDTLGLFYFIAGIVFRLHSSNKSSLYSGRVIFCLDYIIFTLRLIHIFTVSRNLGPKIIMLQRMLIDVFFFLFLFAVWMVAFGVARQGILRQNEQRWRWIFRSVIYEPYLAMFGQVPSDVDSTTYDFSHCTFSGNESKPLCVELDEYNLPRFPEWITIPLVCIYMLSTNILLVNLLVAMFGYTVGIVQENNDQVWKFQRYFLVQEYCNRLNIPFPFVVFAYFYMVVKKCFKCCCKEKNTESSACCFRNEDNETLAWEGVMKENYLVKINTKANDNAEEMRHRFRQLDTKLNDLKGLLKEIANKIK

Na+ channel (site 2) = assay type: binding; details: 10 µM
[9] = molecular target: T6, norepinephrine transporter (h) (Homo sapiens, UniProt P23975); experiment: biochemical; assay type: binding; details: read-out: % inhibition norepinephrine transporter (h)
T6 construct: CEREP (contract assay)
T6 sequence (P23975 whole entry): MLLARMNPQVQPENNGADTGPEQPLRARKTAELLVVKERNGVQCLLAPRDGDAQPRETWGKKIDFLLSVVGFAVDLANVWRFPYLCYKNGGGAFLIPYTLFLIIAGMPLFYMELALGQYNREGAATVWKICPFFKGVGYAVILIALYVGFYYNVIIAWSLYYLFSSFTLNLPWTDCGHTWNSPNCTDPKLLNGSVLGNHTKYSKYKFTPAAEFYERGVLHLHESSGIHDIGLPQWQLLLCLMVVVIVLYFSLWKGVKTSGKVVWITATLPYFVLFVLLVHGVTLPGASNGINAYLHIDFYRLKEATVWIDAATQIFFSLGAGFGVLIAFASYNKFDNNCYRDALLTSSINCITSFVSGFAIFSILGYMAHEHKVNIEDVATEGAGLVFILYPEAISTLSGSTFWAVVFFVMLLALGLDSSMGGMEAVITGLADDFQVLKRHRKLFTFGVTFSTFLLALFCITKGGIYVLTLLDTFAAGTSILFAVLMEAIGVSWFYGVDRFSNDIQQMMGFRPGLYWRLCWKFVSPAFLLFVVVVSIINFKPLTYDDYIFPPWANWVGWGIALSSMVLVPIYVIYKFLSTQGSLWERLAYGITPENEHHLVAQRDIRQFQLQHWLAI

PCP = assay type: binding; details: 10 µM
PPARgamma (h) = molecular target: T7, PPARgamma (h) (Homo sapiens, UniProt P37231); experiment: CEREP panel; assay type: binding; details: read-out: % inhibition PPARgamma (h)
T7 construct: CEREP (contract assay)
T7 sequence (P37231 1-505): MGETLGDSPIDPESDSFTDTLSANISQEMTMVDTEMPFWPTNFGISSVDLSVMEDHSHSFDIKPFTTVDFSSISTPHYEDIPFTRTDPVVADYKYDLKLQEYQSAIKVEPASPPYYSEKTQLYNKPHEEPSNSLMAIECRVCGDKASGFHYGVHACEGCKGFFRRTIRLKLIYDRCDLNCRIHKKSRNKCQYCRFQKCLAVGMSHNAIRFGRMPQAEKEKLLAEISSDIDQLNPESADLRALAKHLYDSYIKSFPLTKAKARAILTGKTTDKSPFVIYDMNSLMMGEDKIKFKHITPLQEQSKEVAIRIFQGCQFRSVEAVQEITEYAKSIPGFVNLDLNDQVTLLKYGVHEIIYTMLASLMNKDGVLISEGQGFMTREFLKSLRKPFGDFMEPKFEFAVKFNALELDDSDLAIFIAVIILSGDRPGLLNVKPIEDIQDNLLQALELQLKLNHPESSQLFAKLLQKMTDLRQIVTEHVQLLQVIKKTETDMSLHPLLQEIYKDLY

T1 sequence (P21554 whole entry): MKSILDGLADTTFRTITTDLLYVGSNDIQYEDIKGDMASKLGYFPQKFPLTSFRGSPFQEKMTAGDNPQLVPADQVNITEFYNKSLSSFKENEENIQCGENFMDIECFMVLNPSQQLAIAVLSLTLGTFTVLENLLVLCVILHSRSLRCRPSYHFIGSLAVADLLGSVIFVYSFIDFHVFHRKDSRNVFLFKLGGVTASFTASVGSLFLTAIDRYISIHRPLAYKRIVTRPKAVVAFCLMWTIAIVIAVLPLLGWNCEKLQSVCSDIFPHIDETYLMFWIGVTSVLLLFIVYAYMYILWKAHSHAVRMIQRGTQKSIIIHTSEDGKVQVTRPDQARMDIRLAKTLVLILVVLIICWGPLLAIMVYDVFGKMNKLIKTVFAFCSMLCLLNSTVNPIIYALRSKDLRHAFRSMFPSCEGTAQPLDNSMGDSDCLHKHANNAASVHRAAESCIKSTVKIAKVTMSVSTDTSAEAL

SMILES: CN1CCCCC1Cn1cc(C(=O)c2cc([N+](=O)[O-])ccc2I)c2ccccc21 (racemic) [(rac)-AM1241]
- pKi ± SEM hCB1R (hCB1R [1]): 6.89 ± 0.31
- pKi ± SEM mCB1R (mCB1R): 5.91 ± 0.16
- Emax ± SEM GTPγS hCB1R (hCB1R [2]): 42 ± 6
- Emax ± SEM β-AR recruitment hCB1R (hCB1R [3]): 6 ± 5
- pEC50 ± SEM β-AR recruitment hCB1R (hCB1R [3]): < 5
- Emax ± SEM pERK hCB1R (hCB1R [4]): 86 ± 3
- pEC50 ± SEM pERK hCB1R (hCB1R [4]): 5.07 ± 0.05
- CL microsomes human [5]: 111 µL/min/mg protein
- logD ([6]; distribution coefficient): 3.66±0.03
- GIRK-GTPγS bias factor (BF) (hCB2R): 1.08
- GIRK-GTPγS ΔΔlogR (hCB2R): 0.03 ± 0.46
- LogR GIRK (hCB2R): 5.52
- LogR GTPγS (hCB2R): 5.9
- LogR pERK (hCB2R): 8.67
- LogR β-AR (hCB2R): 7.95
- pERK-GIRK bias factor (BF) (hCB2R): 95.72
- pERK-GIRK ΔΔlogR (hCB2R): 1.98 ± 0.71
- pERK-GTPγS bias factor (BF) (hCB2R): 103.28
- pERK-GTPγS ΔΔlogR (hCB2R): 2.01 ± 0.8
- β-AR-GIRK bias factor (BF) (hCB2R): 62.37
- β-AR-GIRK ΔΔlogR (hCB2R): 1.8 ± 0.49
- β-AR-GTPγS bias factor (BF) (hCB2R): 68.30
- β-AR-GTPγS ΔΔlogR (hCB2R): 1.83 ± 0.61
- β-AR-pERK bias factor (BF) (hCB2R): 0.65
- β-AR-pERK ΔΔlogR (hCB2R): -0.19 ± 0.81
- ΔLogR GIRK (hCB2R; reference CP55940): -2.35
- ΔLogR GTPγS (hCB2R; reference CP55940): -2.38
- ΔLogR pERK (hCB2R; reference CP55940): -0.37
- ΔLogR β-AR (hCB2R; reference CP55940): -0.55
- RE GIRK (hCB2R; relative effectiveness): 0.004
- RE GTPγS (hCB2R; relative effectiveness): 0.004
- RE pERK (hCB2R; relative effectiveness): 0.43
- RE β-AR (hCB2R; relative effectiveness): 0.28

SMILES: CCCCCCC(C)(C)c1cc(OC)c([C@@H]2C=C(CO)[C@@H]3C[C@H]2C3(C)C)c(OC)c1 [HU308]
- Ki (hCB1R [1]): > 10 µM
- Ki (mCB1R): 0.832 µM
- EC50 (hCB1R [2]): > 10 µM
- Emax (hCB1R [2]; read-out: Emax ± SEM GTPγS hCB1R): 17 ± 9%
- EC50 (hCB1R [3]): > 10 µM
- Emax (hCB1R [3]; read-out: Emax ± SEM β-AR recruitment hCB1R): 5 ± 1%
- EC50 (hCB1R [4]): > 100 µM
- Emax (hCB1R [4]; read-out: Emax ± SEM pERK hCB1R): 18 ± 4%
- EC50 (hGPR55): > 10 µM
- Emax at 10 µM (hGPR55; read-out: GPR55 Emax ± SEM (%) or % effect at 10 µM): -6 ± 5%
- IC50 ([7]; Homo sapiens, U-937, read-out: AEA reuptake IC50 (95% CI) U937 cells): 1.81 µM
- AEA reuptake Efficacy (% inhibition) U937 cells ([7]; from dose-response): 62%
- IC50 [8]: > 5 µM
- TRPV1 Efficacy (% ionomycin 4μM) (Human recombinant TRPV1): < 10%
- IC50 (Human recombinant TRPV1; TRPV1 IC50 for antagonism or desensitization): 69 ± 5.7 µM
- IC50 (Rat recombinant TRPM8): > 100 µM
- % inhibition Na+ channel (site 2) (Na+ channel (site 2)): 30%
- inhibition at 10 µM [9]: 33%
- % inhibition PCP (PCP): -9%
- inhibition at 10 µM (PPARgamma (h)): 14%
- logD [6]: 4.29
- GIRK-GTPγS bias factor (BF) (hCB2R): 0.56
- GIRK-GTPγS ΔΔlogR (hCB2R): -0.26
- GIRK-cAMP bias factor (BF) (hCB2R): 4.33
- GIRK-cAMP ΔΔlogR (hCB2R): 0.64 ± 0.17
- GTPγS-cAMP bias factor (BF) (hCB2R): 7.78
- GTPγS-cAMP ΔΔlogR (hCB2R): 0.89 ± 0.30
- LogR GIRK (hCB2R): 6.281
- LogR GTPγS (hCB2R): 6.95
- LogR cAMP (hCB2R): 8.49
- LogR pERK (hCB2R): 7.55
- LogR β-AR (hCB2R): 7.72
- pERK-GIRK bias factor (BF) (hCB2R): 1.25
- pERK-GIRK ΔΔlogR (hCB2R): 0.1 ± 0.3
- pERK-GTPγS bias factor (BF) (hCB2R): 0.70
- pERK-GTPγS ΔΔlogR (hCB2R): -0.16
- pERK-cAMP bias factor (BF) (hCB2R): 5.42
- pERK-cAMP ΔΔlogR (hCB2R): 0.73 ± 0.27
- β-AR-GIRK bias factor (BF) (hCB2R): 6.37
- β-AR-GIRK ΔΔlogR (hCB2R): 0.80 ± 0.19
- β-AR-GTPγS bias factor (BF) (hCB2R): 3.54
- β-AR-GTPγS ΔΔlogR (hCB2R): 0.55 ± 0.32
- β-AR-cAMP bias factor (BF) (hCB2R): 27.16
- β-AR-cAMP ΔΔlogR (hCB2R): 1.43 ± 0.16
- β-AR-pERK bias factor (BF) (hCB2R): 5.08
- β-AR-pERK ΔΔlogR (hCB2R): 0.71 ± 0.29
- ΔLogR GIRK (hCB2R; reference CP55940): -1.58
- ΔLogR GTPγS (hCB2R; reference CP55940): -1.33
- ΔLogR cAMP (hCB2R; reference CP55940): -2.22
- ΔLogR pERK (hCB2R; reference CP55940): -1.48
- ΔLogR β-AR (hCB2R; reference CP55940): -0.78
- RE GIRK (hCB2R; relative effectiveness): 0.03
- RE GTPγS (hCB2R; relative effectiveness): 0.05
- RE cAMP (hCB2R; relative effectiveness): 0.006
- RE pERK (hCB2R; relative effectiveness): 0.03
- RE β-AR (hCB2R; relative effectiveness): 0.17
